One series addresses TPP riboswitch RNA. Kind of series: Isothermal titration calorimetry (ITC), ligand titrated into RNA. The conditions noted are these: for Kd / Binding affinity relative to a named comparator compound / Kd (μM): ITC; for Effect of modification on RNA binding affinity (FIG. 5): linked fragments 17 and 31, dissociation constants by ITC; for Binding affinity relative to a named comparator compound: comparator named in value. Type of series: binding. In general terms: Isothermal titration calorimetry measures the heat released or taken up as one component is titrated into another.

Series [1] in a line: Solubility at concentrations required for ITC. The class given is physicochemical. The conditions noted are these: ITC buffer. As to the method:
(§1) ITC experiments were performed using a Microcal PEAQ-ITC automated instrument (Malvern Analytical) under RNase-free conditions^41. In vitro transcribed RNA was exchanged into folding buffer containing 100 mM CHES, pH 8.0, 200 mM potassium acetate, and 3 mM MgCl2 using centrifugal concentration (Amicon Ultra centrifugal filters, 10K MWCO, Millipore-Sigma). Ligands were dissolved into the same buffer (to minimize heat of mixing upon addition of ligand to RNA) at a concentration 10-20 times the desired experimental concentration of RNA. RNA concentration was quantified (Nanodrop UV-VIS spectrometer; ThermoFisher Scientific), diluted to 1-10 times the expected […] in buffer, and the diluted RNA was re-quantified to confirm the final experimental RNA concentration. The RNA, diluted in folding buffer, was heated at 65° C. for 5 minutes, placed on ice for 5 minutes, and allowed to fold at 37° C. for 15 minutes. if needed, the primary binding ligand (for example, 2) was pre-bound to the RNA by adding 0.1 volume at 10 times the desired final concentration of the bound ligand, followed by incubation at room temperature for 10 minutes.

Series [2] deals with TPP riboswitch region of the screening construct. Kind of series: SHAPE second-fragment screen of RNA construct pre-bound to primary fragment. Type of series: binding. The conditions noted are these: RNA pre-bound to 2 or S12; fragment 1 mM. As to the method: For the first-fragment-ligand screen, 5 pmol of RNA per well were diluted to […] in RNase-free water on a 4° C. cooling block. The plate was heated at 95° C. for 2 minutes, immediately followed by snap cooling at 4° C. for 5 minutes. To each well was added 19.6 μL of 2× folding buffer (final concentrations 50 mM HEPES pH 8.0, 200 mM potassium acetate, and 10 mM MgCl2), and plates were incubated at 37° C. for 30 minutes. […] To combine the target RNA with fragment, 24.3 μL of RNA solution or RNA plus primary binding fragment were added to wells containing 2.7 μL of 10× screening fragments (in DMSO to yield a final fragment concentration of 1 mM). Solutions were mixed thoroughly by pipetting and incubated for 10 minutes at 37° C. […]
Once screening of test fragments is complete, statistical tests are carried out to identify differences in modification rates of a given nucleotide. […] That is, if m1 modifications of a tested nucleotide were counted among n1 reads in sample 1 and m2 modifications were counted among n2 reads in sample 2, the tested null hypothesis predicts that among all the counted modifications (m1+m2), the proportion of modifications in sample 1 will be p1=n1/(n1+n2). […]

Another series concerns 2-TPP RNA complex. Kind of series: ITC with primary binding fragment pre-bound to the RNA. The conditions noted are these: for Binding cooperativity with 2: ITC in presence and absence of pre-bound 2; for Kd: ITC. On the procedure:
as §1
Each ITC experiment involved two runs: one in which the ligand was titrated into RNA (the experimental trace) and one in which the same ligand was titrated into buffer (the control trace). ITC experiments were performed using the following parameters: 25° C. cell temperature, 8 μCal/sec reference power, 750 RPM stirring speed, high feedback mode, 0.2 μL initial injection, followed by 19 injections of 2 μL. Each injection required 4 seconds to complete, and there was a 180-second spacing between injections.
ITC data was analyzed using MicroCal PEAQ-ITC Analysis Software (Malvern Analytical). First, the baseline for each injection peak was manually adjusted to resolve any incorrectly selected injection endpoints. Second, the control trace was subtracted from the experimental trace by point-to-point subtraction. Third, a least-squares regression line was fit to the data using the Levenberg-Marquardt algorithm. In the case of weakly binding ligands (>500 μM), N was manually set to 1.0 to enable fitting of low c-value curves.

Where [3] appears, read: primary-screen hits, Table 1, value ± error, read-out: Kd.
The mark [4] stands for this setting: fragment 2 analogs, pendant groups, Table 2B, read-out: Kd.
The mark [5] stands for this setting: no ligand pre-bound, Table 6, read-out: Kd (mM) No ligand bound.
[6] abbreviates: primary fragment pre-bound to TPP riboswitch RNA, Table 6, read-out: Kd (mM) 5 pre-bound.
[7] abbreviates: fragment 5 analogs, pendant groups, Table 4, read-out: Kd.
Setting [8] is: fragment 5 analogs, pendant groups, Table 4.

The record followed here is patent publication US20220289688A1, “RNA-TARGETING LIGANDS, COMPOSITIONS THEREOF, AND METHODS OF MAKING AND USING THE SAME” (THE UNIVERSITY OF NORTH CAROLINA AT CHAPEL HILL, priority 2019, published 2022).

Several values for one entry are separate records, joined by “and”; a condition that tells them apart may be missing. Equal entries are not always repeated. Entries after “also recorded” stand apart in the source; their conditions may differ. Where two headings read alike, the source gives them in different places.

A word on the Kd: it is the free concentration of one partner at which half of the binding sites on the other are occupied at equilibrium, for simple one-to-one binding. On to `C#Cc1ccc2nccnc2c1` [Compound 1], for which, at TPP riboswitch RNA (setting [3]), the Kd came out at 11 ± 0.2 µM.

On to `Nc1ccc2nccnc2c1` [Compound 2], for which the Kd at TPP riboswitch RNA (fragment 2 analogs, quinoxaline core modifications, Table 2A, read-out: Kd) was 25 µM; on TPP riboswitch RNA (setting [3]), 25 ± 6 µM; on TPP riboswitch RNA (read-out: Kd), 25 µM.

With `COc1ccc2nsnc2c1` [Compound 3], the Kd on TPP riboswitch RNA (setting [3]) amounted to 95 ± 3 µM.

On to `NCc1ccc(-c2csnn2)cc1` [Compound 4], for which, on TPP riboswitch RNA (setting [3]), the Kd was 220 ± 10 µM.

For the molecule `COC(=O)c1ccc(Cl)nc1` [Compound 5], on TPP riboswitch RNA (setting [3]), the Kd is 265 ± 80 µM.

Consider `c1cc2[nH]cnc2cn1` [Compound 6], for which the Kd at TPP riboswitch RNA (fragment 5 analogs, pyridine core modifications, Table 3, read-out: Kd) was found to be 266 µM; at TPP riboswitch RNA (setting [3]) it was 650 ± 100 µM.

With `O=C1CC(C(F)(F)F)=NN1` [Compound 7], in series [1], the “Solubility at concentrations required for ITC” value (from here on “Solubility”) is “insoluble”.

As for `O=C(O)c1cncc(-c2cccs2)c1` [Compound 8], the “Solubility” value in series [1] was “insoluble”.

For the molecule `Cc1ncc(C[n+]2csc(CCOP(=O)([O-])OP(=O)(O)O)c2C)c(N)n1` [Compound 9, thiamine pyrophosphate, reference compound], on TPP riboswitch RNA (setting [3]), the Kd came to 0.029 ± 0.002 µM.

Regarding `OCc1ccc2nccnc2c1` [Compound 15], on TPP riboswitch RNA (setting [4]), the Kd came to 18 µM.

For `O=Cc1ccc2nccnc2c1` [Compound 18], on TPP riboswitch RNA (setting [4]), the Kd worked out at 35 µM.

Regarding `COC(=O)c1ccc2nccnc2c1` [Compound 19], the Kd at TPP riboswitch RNA (setting [4]) stood at 58 µM; on TPP riboswitch RNA (read-out: Kd), 5 µM.

Consider `Cc1ccc2nccnc2c1` [Compound 20], for which the Kd at TPP riboswitch RNA (setting [4]) is 33 µM.

As to `Nc1cccc2nccnc12` [Compound 21], the dissociation constant (Kd) on TPP riboswitch RNA (setting [4]) was 75 µM.

For `Fc1cccc2nccnc12` [Compound 23], the Kd on TPP riboswitch RNA (setting [4]) turned out to be 220 µM.

For the molecule `Nc1cnc2ccccc2n1` [Compound 24], the Kd on TPP riboswitch RNA (setting [4]) was 379 µM.

On to `NC(=O)c1cnc2ccccc2n1` [Compound 25], for which the equilibrium dissociation constant (Kd) on TPP riboswitch RNA (setting [4]) was 600 µM.

As to `Cc1cc(N2CCNCC2)c2ccccc2n1` [Compound 28], the “Solubility” value in series [1] was “insoluble”.

With `O=C(O)c1csc2ccc(Cl)cc12` [Compound 29], the “SHAPE result of second-round screen” value in series [2] is listed as “caused changes in other areas of the RNA consistent with nonspecific interactions”.

Turning to `c1cc(N2CCNCC2)ccn1` [Compound 31], the Kd is 10000 µM and ≥ 10000 µM at TPP riboswitch RNA (fragment alone, read-out: Kd); > 10000 µM at TPP riboswitch RNA (setting [5]); ~3 mM at 2-TPP RNA complex (2 pre-bound to the TPP riboswitch RNA, read-out: Kd); 3 mM at 2-TPP RNA complex (setting [6]). For the same molecule, the “Binding cooperativity with 2” value in the series with 2-TPP RNA complex is “clear, but modest, binding cooperativity with 2”.

Consider `Cc1cnccc1N1CCNCC1` [Compound 32], for which the Kd on TPP riboswitch RNA (setting [5]) was > 10000 µM; on 2-TPP RNA complex (setting [6]), 4 mM. Moreover, the “Binding cooperativity with 2” value in the series on 2-TPP RNA complex is “clear, but modest, binding cooperativity with 2”.

For the molecule `NCCCN1CCN(c2ccncc2)CC1` [Compound 33], the dissociation constant (Kd) at TPP riboswitch RNA (setting [5]) was > 10000 µM.

For the molecule `Nc1cnccc1N1CCNCC1` [Compound 34], the Kd on TPP riboswitch RNA (setting [5]) was > 10000 µM.

Consider `O=C(CCC(=O)Nc1ccc2nccnc2c1)NO` [Compound 35], for which the “Effect of modification on RNA binding affinity (FIG. 5)” value (“Effect of modification” for short) in the series with TPP riboswitch RNA is “negative modification”.

On to `O=C(CCNc1ccc2nccnc2c1)NO` [Compound 36], for which, in the series on TPP riboswitch RNA, the “Binding affinity relative to a named comparator compound” value is recorded as “fivefold higher binding affinity than the amide-linked version; also recorded: affinity similar to that of the parent fragment 17” and the “Effect of modification” value was “increase RNA binding affinity”.

On to `c1cc(N2CCCCC2)c(NCc2ccc3nccnc3c2)cn1` [Compound 37], for which the Kd at TPP riboswitch RNA (read-out: Kd (affinity)) came to 0.625 µM. Also, the “Effect of modification” value in the series with TPP riboswitch RNA is given as “increase RNA binding affinity”.

`CN(C)CCNCc1ccc2nccnc2c1` [Compound 38]: in the series with TPP riboswitch RNA, the “Binding affinity relative to a named comparator compound” value is recorded as “reduced affinity relative to compound 37” and the “Effect of modification” value was “neutral modifications”.

Regarding `c1cc(N2CCNCC2)c(CNCc2ccc3nccnc3c2)cn1` [Compound 39], in the series with TPP riboswitch RNA, the “Binding affinity relative to a named comparator compound” value was “reduces affinity relative to compound 37” and the “Effect of modification” value is “negative modification”.

`c1cnc2cc(CNc3cncc(N4CCNCC4)c3)ccc2n1` [Compound 40]: in the series with TPP riboswitch RNA, the “Binding affinity relative to a named comparator compound” value was “reduces affinity relative to compound 37” and the “Effect of modification” value is given as “negative modification”.

In the case of `COC(=O)c1ccc(Br)cc1` [compound 85], on TPP riboswitch RNA (setting [7]), the Kd turned out to be 440 µM.

Take `COC(=O)c1ccc([N+](=O)[O-])cc1` [compound 86]: the Kd at TPP riboswitch RNA (setting [7]) was 390 µM.

`CCOc1ccc(C(=O)OC)cc1` [compound 87]: the Kd at TPP riboswitch RNA (setting [7]) was found to be 1800 µM.

On to `COC(=O)c1ccc(N)cc1` [compound 88], for which, on TPP riboswitch RNA (setting [7]), the Kd is 1100 µM.

With `COC(=O)c1ccc(C(F)(F)F)cc1` [compound 89], the “Kd (μM)” value on TPP riboswitch RNA (setting [8]) was “no binding”.

For `COC(=O)c1ccc(Oc2ccccc2)cc1` [compound 810], on TPP riboswitch RNA (setting [8]), the “Kd (μM)” value is reported as “no binding”.

In the case of `COC(=O)c1ccc(Cl)c(Cl)c1` [compound 811], the equilibrium dissociation constant (Kd) on TPP riboswitch RNA (setting [7]) is 820 µM.

On to `COC(=O)c1ccc(Cl)cc1Cl` [compound 812], for which, in the series with TPP riboswitch RNA, the “Binding affinity relative to a named comparator compound” value is “approximately threefold higher affinity for the TPP riboswitch than did fragment 5”. At TPP riboswitch RNA (setting [7]), the dissociation constant (Kd) came to 93 µM.

Turning to `CCOC(=O)c1ccc(Cl)cc1` [compound 813], the Kd at TPP riboswitch RNA (setting [7]) was 600 µM.

For `OCc1ccc(Cl)cc1` [compound 814], the Kd on TPP riboswitch RNA (setting [7]) turned out to be 1300 µM.

For `NC(=O)c1ccc(Cl)cc1` [compound 815], the Kd at TPP riboswitch RNA (setting [7]) is 1800 µM.

With `NS(=O)(=O)c1ccc(Cl)cc1` [compound 816], at TPP riboswitch RNA (setting [7]), the Kd stood at 1300 µM.

Consider `CCS(=O)(=O)c1ccc(Cl)cc1` [compound 817], for which, at TPP riboswitch RNA (setting [8]), the “Kd (μM)” value was “no binding”.

As to `CN(C)C(=O)c1ccc(Cl)cc1` [compound 818], the “Kd (μM)” value on TPP riboswitch RNA (setting [8]) is reported as “no binding”.
